Results on three molecules are retold here after patent US11866416B2, “Streptococcus mutans glucosyl transferase inhibitors for dental caries therapy” (UAB Research Foundation, priority 2018, dated 2024).

For one assay, the system named is S. mutans Gtfs. Description: Gtf zymographic assay with SDS-PAGE. It counts as biochemical, Streptococcus mutans. To be noted: for glucan production in zymogram assay: stilbenes, versus DMSO control. As to the method:
A well-established zymographic assay was used to determine enzymatic activity of Gtfs (Mattos-Graner et al. (2004) J. Clin. Microbiol. 42, […]). In brief, overnight S. mutans UA159 cultures were diluted 1:100 in fresh 5 mL THB with 50 μL of selective compounds at a series of concentrations. Treated bacteria were grown to OD470 of 1.0, and spun down by centrifugation at 4° C., and culture supernatants were collected and filtered through a 0.22-μm-pore-size filter membrane to remove residual bacterial cells and dialyzed at 4° C. against 0.02 M sodium phosphate buffer (pH 6.8), with 10 μM phenylmethylsulfonyl fluoride (PMSF), followed by a second dialysis against 0.2 mM sodium phosphate containing 10 μM PMSF. After dialysis, 4 mL of samples were concentrated to 40 μL by 100K Amicon Ultra-4 centrifugal filter (Merck Millipore Ltd.). For electrophoresis and zymographic analysis, 10 μL of each concentrated culture supernatant was applied to 8% SDS-PAGE in duplicate. One gel was used for protein staining with Coomassie blue dye, while the other one was subjected to zymographic assay as described (Mattos-Graner et al. (2004) J. Clin. Microbiol. 42, […]). The resultant white opaque glucan bands were visualized against a black background.
Inhibition of the activity of Gtfs determined by zymographic assays. Well established zymographic assay was used to determine enzymatic activity of Gtfs. In brief, overnight S. mutans UA159 cultures were diluted 1:100 in fresh 5 mL THB. Bacteria were grown to OD470 of 1.0, and spun down by centrifugation at 4° C. and culture supernatants were collected and filtered through a 0.22-μm-pore-size filter membrane to remove residual bacterial cells and dialyzed at 4° C. against 0.02 M sodium phosphate buffer (pH 6.8), with 10 μM phenylmethylsulfonyl fluoride (PMSF), followed by a second dialysis against 0.2 mM sodium phosphate containing 10 μM PMSF. After dialysis, 4 mL of samples were concentrated to 40 μL by 100K Amicon Ultra-4 centrifugal filter (Merk Millipore Ltd.). For electrophoresis and zymographic analysis, 10 μL of each concentrated culture supernatant was applied to 8% SDS-PAGE in duplicate. One gel was used for protein staining with Coomassie blue dye, while the other one was subjected to zymographic assay. For zymogram analysis, following electrophoretic separation, gels were washed twice for 15 min each with renaturing buffer containing 2.5% Triton X-100. Gels were then incubated for 18 h at 37° C. with 0.2 M sodium phosphate buffer (pH 6.5) containing 0.2% dextran T70, 5% sucrose, and varying concentrations of the small molecule inhibitors. The reactions were stopped by washing gels with distilled water at 4° C. for 10 min, and digital images of the resultant white opaque glucan bands were visualized against a black background and captured using a digital camera.
Inhibition of the activity of Gtfs determined by zymographic assays. A well-established zymographic assay was used to determine enzymatic activity of Gtfs (Mattos-Graner, R. O., Napimoga, M. H., Fukushima, K., Duncan, M. J., Smith, D. J., J Clin Microbiol, 2004, 42, 4586). In brief, overnight S. mutans UA159 cultures were diluted 1:100 in fresh 5 mL THB with 50 μL of selective compounds at a series of concentrations. Treated bacteria were grown to OD470 of 1.0, and spun down by centrifugation at 4° C., and culture supernatants were collected and filtered through a 0.22-μm-pore-size filter membrane to remove residual bacterial cells and dialyzed at 4° C. against 0.02 M sodium phosphate buffer (pH 6.8), with 10 μM phenylmethylsulfonyl fluoride (PMSF), followed by a second dialysis against 0.2 mM sodium phosphate containing 10 μM PMSF. After dialysis, 4 mL of samples were concentrated to 40 μL by 100K Amicon Ultra-4 centrifugal filter (Merk Millipore Ltd.). For electrophoresis and zymographic analysis, 10 μL of each concentrated culture supernatant was applied to 8% SDS-PAGE in duplicate. […]

For another assay, the target named is GtfB catalytic domain (Streptococcus mutans serotype c (strain ATCC 700610 / UA159), UniProt P08987). Description: OctetRed96 binding kinetics, GtfB. The note with it: 1:1 binding model. An excerpt: To determine if the inhibition is attributed by the binding of the lead compound to the enzymes, the OctetRed96 system was used to characterize protein-small molecule binding kinetics. The his-tagged catalytic domains of GtfB and GtC were immobilized separately onto an anti-penta-HIS (HIS1K) biosensor which consists of high affinity, high specificity penta-his antibody pre-immobilized on a fiber optic biosensor. This sensor was then exposed to varying concentrations of #G43.
Expression and purification of GtfB and GtfC catalytic domains. The DNA fragment coding for either GtfB catalytic (residues 268 aa-1074 aa) or GtfC-catalytic (residues 295 aa-1103 aa) was PCR amplified with primer sets of GtfB-BamH1-F and GtfB-Xho1-R, GtfC-BamH1-F and GtfC-Xhol1-R respectively using S. mutans genomic DNA as a template. Each amplified fragment was cloned into pET-sumo vector respectively and transformed in Escherichia coli BL21(DE3). The recombinant strain grown to OD600=0.8 in LB medium was induced with 0.1 mM IPTG at 18° C. overnight. Cell lysates prepared form the overnight grown E. coli cells were subjected to protein purification using HiTrap™ Column (Ni^2+ affinity) followed by gel filtration experiments as described (Zhu, F. et al. Structural and functional analysis of a new subfamily of glycosyltransferases required for glycosylation of serine-rich streptococcal adhesins. The Journal of biological chemistry 286, 27048-27057, doi:10.1074/jbc.M110.208629 (2011); Zhang, H. et al. The highly conserved domain of unknown function 1792 has a distinct glycosyltransferase fold. Nature communications 5, 4339, doi:10.1038/ncomms5339 (2014)).
Octet Red analysis. Octet full kinetic binding analysis was performed for binding of #G43 to GtfB and GtfC. The rate constant, KD, was determined using the Octet® Red96 system (ForteBio, Menlo Park, Calif.). Phosphate buffer with 3.5% (w/v) DMSO was used. The proteins were captured on dip-and-read Anti-Penta-HIS (HIS1K) Biosensor. These consist of high affinity, high specificity Penta-His antibody from Qiagen pre-immobilized on a fiber optic biosensor. The binding of #G43 at 3-fold serial dilutions in phosphate buffer from 200, 66.6, 22.2, 7.4, 2.5 to 0 μM was assessed. The ForteBio Octet analysis software (ForteBio, Menlo Park, Calif.) was used to generate the sensorgram and the accuracy of the analysis.
OctetRed analysis. […] GtfC and GtfB were purified. The Octet® Red96 system (ForteBio, Menlo Park, Calif.) was used to determine the rate constant, KD. […] Sensorgrams and the accuracy of the analysis was calculated using the ForteBio OctetRed analysis software (ForteBio, Menlo Park, Calif.).

Each structure is given as a SMILES string.

Sequence of GtfB catalytic domain (P08987 268-1074 limits assumed): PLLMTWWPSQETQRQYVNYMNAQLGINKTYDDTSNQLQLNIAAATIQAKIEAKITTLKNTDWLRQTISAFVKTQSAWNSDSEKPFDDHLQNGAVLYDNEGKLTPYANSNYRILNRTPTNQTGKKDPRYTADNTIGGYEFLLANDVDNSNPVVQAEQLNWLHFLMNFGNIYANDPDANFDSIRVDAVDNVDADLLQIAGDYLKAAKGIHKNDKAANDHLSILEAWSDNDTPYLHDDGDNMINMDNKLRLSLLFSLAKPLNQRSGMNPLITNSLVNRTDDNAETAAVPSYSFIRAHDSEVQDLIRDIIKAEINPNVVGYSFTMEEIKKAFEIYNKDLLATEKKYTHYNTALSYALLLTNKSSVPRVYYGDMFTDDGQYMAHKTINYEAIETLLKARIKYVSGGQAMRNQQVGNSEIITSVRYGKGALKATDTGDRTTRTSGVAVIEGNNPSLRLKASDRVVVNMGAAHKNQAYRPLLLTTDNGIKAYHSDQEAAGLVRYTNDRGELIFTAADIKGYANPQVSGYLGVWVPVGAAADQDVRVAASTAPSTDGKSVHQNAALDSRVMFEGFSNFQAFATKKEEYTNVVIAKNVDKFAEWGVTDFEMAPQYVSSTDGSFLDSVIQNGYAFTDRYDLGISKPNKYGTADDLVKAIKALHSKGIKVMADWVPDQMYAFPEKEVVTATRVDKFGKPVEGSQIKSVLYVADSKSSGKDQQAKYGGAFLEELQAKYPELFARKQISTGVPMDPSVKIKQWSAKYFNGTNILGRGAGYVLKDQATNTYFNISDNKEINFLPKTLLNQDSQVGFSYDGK

For the molecule `NC(=O)c1ccccc1NC(=O)c1cc2cc([N+](=O)[O-])ccc2s1` [#G43], the “glucan production of the Gtfs in zymographic assay” value in the assay with S. mutans Gtfs (25 μM, Gtfs from wild type S. mutans) is recorded as “drastically reduced the glucan production”. For the same molecule, the “glucan bands in zymographic assay” value with S. mutans Gtfs (50 μM, Gtfs from S. mutans UA159 supernatants) is recorded as “drastically reduced the glucan bands”. At GtfB catalytic domain, this molecule came in with a Kd of 3.7 µM.

Take `Oc1cc(O)cc(/C=C/c2ccc(O)c(O)c2)c1` [Piceatannol]: the “glucan production in zymogram assay” value in the assay on S. mutans Gtfs is “greatly reduced glucan production”. Binding at GtfB catalytic domain was put at a Kd of 14.6 µM.

As to `Oc1ccc(/C=C/c2cc(O)cc(O)c2)cc1` [Resveratrol, reference compound], the “glucan production in zymogram assay” value with S. mutans Gtfs is “marginal inhibition”. Moreover, the Kd on GtfB catalytic domain is 144 µM.
